Test results published in patent US11623924B2, “Modulators of alpha-1 antitrypsin” (Vertex Pharmaceuticals Incorporated, priority 2018, dated 2023).

Biological target: T1, NL20 human bronchial epithelial cells expressing human Z-AAT (Homo sapiens, UniProt P01009, E366K)
T1 construct: expressed in transfected cells; host or cells: NL20 human bronchial epithelial cells (NL20-SI line, doxycycline added)
Assay: AAT Function Assay (MSD Assay NL20-SI Cell Line)
Format: cell-based
Conditions: functionally active AAT (AAT-hNE complex) in supernatant of NL20 cells expressing human Z-AAT; read-out: NL20 Func. (EC50)
Method: A. AAT Function Assay (MSD Assay NL20-SI Cell Line)
Alpha-1 antitrypsin (AAT) is a SERPIN (serine protease inhibitor) that inactivates enzymes by binding to them covalently. This assay measured the amount of functionally active AAT in a sample in the presence of the disclosed compounds 1-215 by determining the ability of AAT to form an irreversible complex with human neutrophil Elastase (hNE). In practice, the sample (cell supernatant, blood sample, or other) was incubated with excess hNE to allow AAT-Elastase complex to be formed with all functional AAT in the sample. This complex was then captured to a microplate coated with an anti-AAT antibody. The complex captured to the plate was detected with a labeled anti-Elastase antibody and quantitated using a set of AAT standards spanning the concentration range present in the sample. Meso Scale Discovery (MSD) plate reader, Sulfo-tag labeling, and microplates were used to provide high sensitivity and wide dynamic range.
• 1. Harvest NL20 human bronchial epithelial cells expressing human Z-AAT in OptiMEM™ containing Pen/Strep (P/S) • 2. Seed at 16,000 cells/well in 30 μL (384 well plate) • 3. Centrifuge plates briefly up to speed (1200 rpm) and place into 37° C. incubator overnight Day 2: Compound Addition and Coating Plates with Capture Antibody Compound Addition: • 1. Dispense 40 μL of OptiMEM™ (P/S) with doxycycline (1:1000 stock=0.1 μM final) to each well of the compound plate using a multidrop Combi in hood • 2. Remove cell plate from incubator, flip/blot and take immediately to Bravo to transfer compounds • 3. Return plates to incubator overnight Coat MSD Plates • 1. Dilute capture antibody (Polyclonal Goat anti-AAT) to 5 μg/mL (1:200) in PBS (no BSA). • 2. Dispense 25 μL of diluted capture antibody into all wells of MSD 384-well High Bind plate using the Multidrop equipped with a standard cassette. • 3. Incubate overnight at 4° C. Prepare Blocker A (BSA) Solutions • 1. Prepare solution of 5% MSD Blocker A (BSA) following the manufacturer's instructions. • 2. Further dilute the 5% MSD Blocker A in PBS to 1% (Blocker A) as needed. Day 3: Run MSD Assay
Block Plates • 1. Wash plate 1× with 50 μL Wash buffer (PBS+0.5% Tween 20), and adds 35 μL 5% Block A buffer to block non-specific binding on washer dispenser • 2. Rotate plates on shaker for 1 hour at 600 rpm
Prepare M-AAT Standards • 1. Dilute M-AAT stock to 1.6 μg/mL in 1% BSA Blocker A (Stock in −70° C.); then prepare 12×1:2 serial dilutions in 1% Blocker A • 2. The top starting final concentration on MSD plate is 320 ng/mL. These dilutions correspond to a final concentration of 320, 160, 80, 40, 20, 10, 5, 2.5, 1.25, 0.625, 0.312, 0.156 ng/mL.
Dilution Plate • 1. Add 80 μL of 1% Assay buffer to all wells except columns 1/24 (standards) with Multidrop Combi • 2. Add diluted standards to columns 1 and 24 • 3. Centrifuge dilution plates 1200 rpm briefly
Cell Plate • 1. Aspirate columns which will have the standards from the cell plates in the hood using 16-pin aspirator
Prepare Human Neutrophil Elastase (hNE) • 1. Prepare 1 μg/mL Human Neutrophil Elastase by diluting in 1% Blocker A. • a. Small 100 μg vial—add 1 mL PBS (100 μg/mL) • i. This can then be diluted 1:100 in 1% Assay Buffer for a final 1 μg/mL concentration
MSD—Add hNE (20 μL/well) • 1. After the MSD plate has blocked for at least 1 hour, wash plate 1× with 50 μL Wash buffer (PBS+0.5% Tween 20) and then add 20 μL hNE to each well
Bravo—Cell Plate—Dilution Plate—MSD Plate
Using the Bravo aspirate 10 μL from the cell plate, transfer to the dilution plate (9-fold dilution)
• 1. Mix 25 μL 3×, then aspirate 5 μL, transfer to MSD plate (5-fold dilution) • 2. Mix 10 μL 3×. Total dilution is 45 fold. • 3. Shake plates at 600 rpm for 1.5 hours
Add Functional detection hNE antibody • 1. Wash plate 1× with wash buffer • 2. […]

T1 sequence (P01009 25-418 E366K): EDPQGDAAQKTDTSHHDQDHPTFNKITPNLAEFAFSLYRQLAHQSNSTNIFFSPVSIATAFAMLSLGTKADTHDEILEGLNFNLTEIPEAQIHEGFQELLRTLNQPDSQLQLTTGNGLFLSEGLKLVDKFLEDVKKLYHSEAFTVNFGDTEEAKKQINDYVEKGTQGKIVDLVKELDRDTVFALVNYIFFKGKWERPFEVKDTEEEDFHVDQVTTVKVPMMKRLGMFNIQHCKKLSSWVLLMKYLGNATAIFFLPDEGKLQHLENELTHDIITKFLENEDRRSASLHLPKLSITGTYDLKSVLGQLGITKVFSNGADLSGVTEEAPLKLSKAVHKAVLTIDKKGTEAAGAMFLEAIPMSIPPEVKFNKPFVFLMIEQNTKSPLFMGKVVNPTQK

| Compound | EC50 [µM] |
| --- | --- |
| [H][C@]1(C(=O)O)C[C@]2(C1)C[C@]([H])(c1c(C3CCOCC3)n(-c3ccc(F)c(C)c3)c3cc4cn[nH]c4cc31)C2 (single isomer, unassigned) [Compound 92] | < 1.16 |
| Cc1cc(-n2c(C(C)C)c(CCC(=O)O)c3cc4[nH]nc(C)c4cc32)ccc1F [Compound 54, 3-[5-(4-fluoro-3-methyl-phenyl)-6-isopropyl-3-methyl-1H-pyrrolo[2,3-f]indazol-7-yl]propanoic Acid] | > 3 |
| O=C(O)[C@H]1CC[C@H](Cc2c(C3CCOCC3)n(-c3ccc(F)c(Cl)c3)c3cc4cn[nH]c4cc23)CC1 [Compound 84] | 1.16 to 3 |
| Cc1cc(-n2c(C(C)C)c(CC(C)C(=O)O)c3cc4[nH]ncc4cc32)ccc1F (single isomer, unassigned) [Compound 20] | < 1.16 |
| CC(C)c1c(CCC(=O)O)c2cc3[nH]ncc3cc2n1-c1cccc(C(F)(F)F)c1 [Compound 40, 3-[6-isopropyl-5-[3-(trifluoromethyl)phenyl]-1H-pyrrolo[2,3-f]indazol-7-yl]propanoic Acid] | > 3 |
| N#Cc1c(C2CCOCC2)n(-c2ccc(F)cc2)c2cc3cn[nH]c3cc12 [Compound 61, 5-(4-fluorophenyl)-6-tetrahydropyran-4-yl-1H-pyrrolo[2,3-f]indazole-7-carbonitrile] | > 3 |
| Cc1cc(-n2c(C3CCOCC3)c(CCCC(=O)O)c3cc4[nH]ncc4cc32)ccc1F [Compound 88] | 1.16 to 3 |
| Cc1cc(-n2c(C(C)C)c(CCC(=O)O)c3c(F)c4[nH]ncc4cc32)ccc1F [Compound 52, 3-[8-fluoro-5-(4-fluoro-3-methyl-phenyl)-6-isopropyl-1H-pyrrolo[2,3-f]indazol-7-yl]propanoic Acid] | < 1.16 |
| CS(=O)(=O)c1c(C2CCOCC2)n(-c2ccc(F)cc2)c2cc3cn[nH]c3cc12 [Compound 62, 5-(4-fluorophenyl)-7-methylsulfonyl-6-tetrahydropyran-4-yl-1H-pyrrolo[2,3-f]indazole] | > 3 |
| CCNC(=O)c1c(C(C)C)n(-c2ccc(F)c(C)c2)c2cc3cn[nH]c3cc12 [Compound 6, N-ethyl-5-(4-fluoro-3-methyl-phenyl)-6-isopropyl-1H-pyrrolo[2,3-f]indazole-7-carboxamide] | > 3 |
| O=C(O)[C@H]1C[C@H](Cc2c(C3CCOCC3)n(-c3ccc(F)c(F)c3)c3cc4cn[nH]c4cc23)C1 (single isomer, unassigned) [Compound 71] | > 3 |
| Cc1cc(-n2c(C(C)C)c(C(=O)N3CCOCC3)c3cc4[nH]ncc4cc32)ccc1F [Compound 4, [5-(4-fluoro-3-methyl-phenyl)-6-isopropyl-1H-pyrrolo[2,3-f]indazol-7-yl]-morpholino-methanone] | > 3 |
| Cc1cc(-n2c(C(C)C)c(C3CC4(CC(C(=O)O)C4)C3)c3cc4[nH]nc(C)c4cc32)ccc1F (single isomer, unassigned) [Compound 57, 6-[5-(4-fluoro-3-methyl-phenyl)-6-isopropyl-3-methyl-1H-pyrrolo[2,3-f]indazol-7-yl]spiro[3.3]heptane-2-carboxylic acid] | 1.16 to 3 |

Next, values leading:

| EC50 [µM] | Compound |
| --- | --- |
| > 3 | Cc1cc(-n2c(C3(C)COC3)cc3cc4[nH]ncc4cc32)ccc1F [Compound 138, 5-(4-fluoro-3-methyl-phenyl)-6-(3-methyloxetan-3-yl)-1H-pyrrolo[2,3-f]indazole] |
| 1.16 to 3 | COCC(C)(C)c1c(CC2CCS(=O)(=O)CC2)c2cc3[nH]ncc3cc2n1-c1ccc(F)cc1 [Compound 182] |
| 1.16 to 3 | [2H]c1c([2H])c(-n2c(C(C)C)c(CCC(=O)O)c3cc4[nH]ncc4cc32)c([2H])c([2H])c1F [Compound 188, 3-[6-isopropyl-5-(2,3,5,6-tetradeuterio-4-fluoro-phenyl)-1H-pyrrolo[2,3-f]indazol-7-yl]propanoic Acid] |
| > 3 | Cc1n[nH]c2cc3c(C4CC5(CC(C(=O)O)C5)C4)c(C4CCOCC4)n(-c4ccc(F)c(F)c4)c3cc12 (racemic) [Compound 129, 6-[5-(3,4-difluorophenyl)-3-methyl-6-tetrahydropyran-4-yl-1H-pyrrolo[2,3-f]indazol-7-yl]spiro[3.3]heptane-2-carboxylic Acid] |
| < 1.16 | C=C(C)c1c(C23CC(C(=O)O)(C2)C3)c2cc3[nH]ncc3cc2n1-c1ccc(F)cc1 [Compound 208, 3-[5-(4-fluorophenyl)-6-isopropenyl-1H-pyrrolo[2,3-f]indazol-7-yl]bicyclo[1.1.1]pentane-1-carboxylic Acid] |
| > 3 | O=C(O)C1CC2(C1)CC(c1c(C3CCOC3)n(-c3ccc(F)cc3)c3cc4cn[nH]c4cc13)C2 (single isomer, unassigned) [Compound 141, 6-[5-(4-fluorophenyl)-6-tetrahydrofuran-3-yl-1H-pyrrolo[2,3-f]indazol-7-yl]spiro[3.3]heptane-2-carboxylic acid] |
| 1.16 to 3 | CC(C)c1c(-c2ccc(Cl)cc2)c2cc3cn[nH]c3cc2n1CCC(=O)O [Compound 206, 3-[5-(4-chlorophenyl)-6-isopropyl-1H-pyrrolo[3,2-f]indazol-7-yl]propanoic Acid] |
| 1.16 to 3 | [2H]c1n[nH]c2c([2H])c3c(CC([2H])([2H])C(=O)O)c(C([2H])(C)C)n(-c4ccc(F)cc4)c3c([2H])c12 [Compound 189, 2,2-dideuterio-3-[3,4,8-trideuterio-6-(1-deuterio-1-methyl-ethyl)-5-(4-fluorophenyl)-1H-pyrrolo[2,3-f]indazol-7-yl]propanoic Acid] |
| > 3 | Cc1cc(-n2c(C3CCOCC3)c([C@H]3C[C@@H](C(=O)O)C3)c3cc4[nH]ncc4cc32)ccc1F [Compound 99] |
| > 3 | CC(C)c1c(CCC(=O)N[C@@H]2C(=O)NC[C@H]2O)c2cc3[nH]ncc3cc2n1-c1ccc(F)cc1 (stereo in doubt) [Compound 211, 3-[5-(4-fluorophenyl)-6-isopropyl-1H-pyrrolo[2,3-f]indazol-7-yl]-N-[(3S,4R)-4-hydroxy-2-oxo-pyrrolidin-3-yl]propanamide] |
| > 3 | Fc1ccc(-n2c(C3CCOCC3)c(CCCn3cncn3)c3cc4[nH]ncc4cc32)cc1 [Compound 164] |
| 1.16 to 3 | CNS(=O)(=O)CCc1c(C2CCOCC2)n(-c2ccc(F)cc2)c2cc3cn[nH]c3cc12 [Compound 159, 2-[5-(4-fluorophenyl)-6-tetrahydropyran-4-yl-1H-pyrrolo[2,3-f]indazol-7-yl]-N-methyl-ethanesulfonamide] |
| > 3 | COCC(C)(C)c1c(CCCN)c2cc3[nH]ncc3cc2n1-c1ccc(F)cc1 [Compound 179] |
| < 1.16 | [2H]C([2H])(C(=O)O)C([2H])([2H])c1c(C(C)C)n(-c2ccc(F)cc2)c2cc3cn[nH]c3cc12 [Compound 171, 2,2,3,3-tetradeuterio-3-[5-(4-fluorophenyl)-6-isopropyl-1H-pyrrolo[2,3-f]indazol-7-yl]propanoic Acid] |
| > 3 | Cc1cc(-n2c(C3(C)COC3)c(S(C)(=O)=O)c3cc4[nH]ncc4cc32)ccc1F [Compound 139, 5-(4-fluoro-3-methyl-phenyl)-6-(3-methyloxetan-3-yl)-7-methylsulfonyl-1H-pyrrolo[2,3-f]indazole] |
